Like-named read-outs stand apart in the source and are kept apart here.
Assays:
C9M-TF1 cells [1] = experiment: Primary high-throughput screen, Alamar Blue, suspension cells; assay type: cell-based; conditions: Homo sapiens, 72 h, compound at 10 μM, read-out: percentage kill, C9M
Procedure: (§1) Daughter Plates containing 10 μl of a […] solution of test compound selected from among the candidate compounds stored at […] are thawed at room temperature. A 10 μL volume of 0.1% DMSO in PBS is added to all wells of Column 12 and the wells in Row A-F of Column 1. A 10 μl volume of a pre-determined concentration of the P13-Kinase inhibitor LY294002 is added to wells in Row G and H of Column 1. A 90 μl volume of the appropriate cell culture medium is then added to each well and mixed by repeated aspiration/dispensing. The compounds are at a final test concentration of 10 μM.
(§2) Once the Daughter Plates have been prepared the media is removed from all wells of the cell culture plate using an 8-Channel Vacuum Aspirator. The contents of the Daughter Plates are then transferred to the appropriate wells of their relevant Test Plates and the Test Plates are incubated for 72 h at 37° C. and 5% CO2. At the end of this period Test Plates are assayed by Alamar Blue. A 10 μl volume of Alamar Blue is added to all wells of the Test Plate. The Test Plates are incubated for […] at 37° C. and 5% CO2 and finally read using the BioTek SYNERGY plate reader (Excitation 530125 nm-Emission 590135 nm). Percentage inhibition is determined using Microsoft Excel spreadsheet calculations.
(§3) Suspension cells are split 24 hours prior to drug treatment in order to bring the cultures into the log phase of growth. On the day of the assay the cells are plated directly into the Daughter Plates at the appropriate pre-determined seeding density (Table 1) in 90 μl volumes, the concentration of the test compounds thus being reduced to 10 μM. Cells are plated in all wells apart from those in Column 12 which contain 901 normal culture medium alone. The plates are incubated for 72 h at 37° C. and 5% CO2 after which time they are assayed by Alamar Blue as per the preceding example.
(§4) The figures appearing in the columns are the percentage kill achieved by that compound at 10 μM.

[2] = test system: FRAT2 overexpresing TF1 (FRAT2-C9M-TF1 cells); experiment: as above; assay type: cell-based; conditions: Homo sapiens, compound at 10 μM, 72 h
Procedure: as §1, §2, §3, §4

FRAT2-C9M-TF1 cells [3] = experiment: EC50 titration, Alamar Blue, suspension cells; assay type: cell-based, Human; conditions: for EC50: Homo sapiens, 72 h, Alamar Blue
Procedure: (§5) On the day of the assay compounds are used to prepare dilution series on Titration Plates which are plated at ten times their final screening concentration in 10 μl aliquots.
(§6) Suspension cells are split 24 hours prior to drug treatment in order to bring the cultures into the log phase of growth. On the day of the assay the cells are plated directly into the Titration Plates at the appropriate pre-determined seeding density (Table 1) in 90 μl volumes thus reducing the concentration of the compounds to their final test concentration. The plates are incubated for 72 hours at 37° C. and 5% CO2 after which time they are assayed by Alamar Blue.
(§7) The EC50 values are calculated using the values obtained from the Alamar Blue readout which are converted into a “Percentage of the Untreated Control” and using Graph Pad Prism these values are plotted against the logarithm of the test concentration. Using a non-linear regression analysis a sigmoidal dose-response curve is generated from which the EC50 is determined.

[4] = test system: breast cancer cell line MCF7; experiment: EC50 titration, Alamar Blue, adherent cells; assay type: cell-based; conditions: Homo sapiens, 72 h
Procedure: as §5
(§8) For adherent cell lines plated 24 hours previously, a 90 μl volume of the appropriate cell culture medium is then added to each well of the Titration Plates and mixed by repeated aspiration/dispensing, thus taking the compounds to their final test concentration. Once the Titration Plates have been prepared the media is removed from all wells of the cell culture plate and the contents of the Titration Plates are then transferred to the appropriate wells of their relevant Test Plates and incubated for 72 h at 37° C. and 5% CO2 after which time they are assayed by Alamar Blue. Using a combination of Microsoft Excel and Graph Pad Prism, EC50s are determined.
as §7

[5] = test system: colon cancer cell line HT29; experiment: EC50 titration, Alamar Blue, adherent cells; assay type: cell-based; conditions: Homo sapiens, HT-29, 72 h
Procedure: as §5, §8, §7

[6] = test system: non-transformed breast cell line MCF10A; experiment: EC50 titration, Alamar Blue, adherent cells; assay type: cell-based; conditions: Homo sapiens, MCF-10A, 72 h
Procedure: as §5, §8, §7

HCT116 = experiment: EC50 titration, Alamar Blue; assay type: cell-based; conditions: Homo sapiens, HCT-116
Procedure: as §5, §8, §7

LoVo = experiment: EC50 titration, Alamar Blue; assay type: cell-based; conditions: Homo sapiens
Procedure: as §5, §8, §7

[7] = test system: PC3 Prostate carcinoma (bone metastasis); experiment: Primary high-throughput screen, Alamar Blue, adherent cells; assay type: cell-based; conditions: compound at 10 μM, 72 h; read-out: percentage kill, PC3
Procedure: (§9) Adherent cells are plated at a pre-determined seeding density (Table 1) in flat-bottom 96 well plates 24 hours prior to drug treatment. The cell lines are plated in 100 μl volumes in each well. Cells are plated in all wells apart from those in Column 12 which contain 100 μL normal culture medium alone. These plates will be known as the Test Plates. The Test Plates are labelled with a Daughter Plate ID.
as §1, §2, §4

[8] = test system: MCF7 Mammary gland adenocarcinoma; experiment: as above; assay type: cell-based; conditions: Homo sapiens, compound at 10 μM, 72 h, read-out: percentage kill, MCF7
Procedure: as §9, §1, §2, §4

[9] = test system: NCI ADR RES Breast adenocarcinoma (pleural effusion); experiment: as above; assay type: cell-based; conditions: Homo sapiens, compound at 10 μM, 72 h, read-out: percentage kill, NCI ADR RES
Procedure: as §9, §1, §2, §4

[10] = test system: CACO2 Colon adenocarcinoma; experiment: as above; assay type: cell-based; conditions: Homo sapiens, Caco-2; compound at 10 μM, 72 h; read-out: percentage kill, CAC02
Procedure: as §9, §1, §2, §4

[11] = test system: SW480 Colon adenocarcinoma (Dukes' type B); experiment: as above; assay type: cell-based; conditions: Homo sapiens, compound at 10 μM, 72 h, read-out: percentage kill, SW480
Procedure: as §9, §1, §2, §4

[12] = test system: A549 Non Small Cell Lung Carcinoma; experiment: as above; assay type: cell-based; conditions: Homo sapiens, compound at 10 μM, 72 h, read-out: percentage kill, A549
Procedure: as §9, §1, §2, §4

[13] = test system: U1810 Non Small Cell Lung Carcinoma; experiment: as above; assay type: cell-based; conditions: U-1810; compound at 10 μM, 72 h; read-out: percentage kill, U1810
Procedure: as §9, §1, §2, §4

[14] = test system: HT29 Colorectal adenocarcinoma; experiment: as above; assay type: cell-based; conditions: Homo sapiens, HT-29; compound at 10 μM, 72 h; read-out: percentage kill, HT29
Procedure: as §9, §1, §2, §4

[15] = test system: LS123 Colon adenocarcinoma (Dukes' type B); experiment: as above; assay type: cell-based; conditions: Homo sapiens, LS-123; compound at 10 μM, 72 h; read-out: percentage kill, LS123
Procedure: as §9, §1, §2, §4

C9M-TF1 cells [16] = experiment: EC50 titration, Alamar Blue, suspension cells; assay type: cell-based; conditions: Homo sapiens, 72 h
Procedure: as §5, §6, §7

C9M-TF1 cells [17] = experiment: LY294002 control plate titration, Alamar Blue; assay type: cell-based; conditions: Homo sapiens, 72 h, FIG. 8
Procedure: (§10) This example describes an assay to examine the effect of the PI3K inhibitor LY294002 on cell survival for both FRAT2-[…]-TF1 or […]-TF1 cells, as determined by Alamar Blue. The growth factor GMCSF mediates its survival effect through the PI3/AKT pathway. Consequently, inhibitors of this pathway will increase apoptosis in pathway-dependent cell lines. Both FRAT2-[…]-TF1 or […]-TF1 are split 24 hours prior to drug treatment in order to bring the cultures into the log phase of growth. On the day of the assay the cells are plated directly into a 96 well microtitre plates containing 10 uL volumes of a serial dilutions of LY294002, such that there was a final cell number of 5000 cells per well in 90 uL volumes thus reducing the concentration of the compounds to their final test concentration. The plates are incubated for 72 h at 37° C. and 5% CO2 after which time they are assayed by Alamar Blue. […] The overexpression of FRAT2 leads to the stabilization β-catenin through disassociation of GSK3β from Axin and through the inhibition of β-catenin phosphorylation which results in an increased level of β-catenin in the nucleus of the cell where it forms a complex with the HMB box transcription factors LEF and TCF as well as with CREB Binding Protein. […]

FRAT2-C9M-TF1 cells [18] = experiment: LY294002 control plate titration, Alamar Blue; assay type: cell-based; conditions: Homo sapiens, 72 h, FIG. 8
Procedure: as §10

colon cancer = conditions: cited from earlier work
[19] = minus GMCSF, read-out: percentage kill, FRAT2−
[20] = plus GMCSF, read-out: percentage kill, FRAT2+

Molecule | inhibition at 10 µM (C9M-TF1 cells [1]; first C9M column) | inhibition at 10 µM (C9M-TF1 cells [1]; second C9M column) | inhibition at 10 µM [2, 19] | inhibition at 10 µM [2, 20] | EC50 (FRAT2-C9M-TF1 cells [3]; absence of growth factor) | EC50 (FRAT2-C9M-TF1 cells [3]; presence of growth factor) | EC50 [4] | EC50 [5] | EC50 [6] | EC50 (HCT116) | inhibition at 10 µM [7] | inhibition at 10 µM [8] | inhibition at 10 µM [9] | inhibition at 10 µM [10] | inhibition at 10 µM [11] | inhibition at 10 µM [12] | inhibition at 10 µM [13] | inhibition at 10 µM [14] | inhibition at 10 µM [15] | EC50 (C9M-TF1 cells [16]) | other results
COc1ccc(-c2cnn3c(NCc4ccccn4)ccnc23)cc1OC [Compound 2] | -2% | 0% | 57% | 33% | 6.31 µM | 7.08 µM | 2.24 µM | 4.37 µM | 20.4 µM | 3 µM | 4% | 68% | 73% | 66% | 68% | 18% | 23% | 60% | 91% | 24 µM | EC50 (LoVo): 2.2 µM
COc1ccc(-c2cnn3c(NCc4ccccn4)ccnc23)cc1 [Compound 3] | 8% | -12% | 76% | 40% | 4.17 µM | 2.24 µM | 0.83 µM | 0.74 µM | 7.24 µM | 2.2 µM | -20% | 85% | 66% | 58% | 64% | 13% | 15% | 80% | 95% | 5.62 µM | EC50 (LoVo): 2.2 µM
COc1ccc(-c2cnn3c(NCc4ccccn4)ccnc23)cn1 [Compound 9] | 9% | -5% | 62% | 15% | 3.39 µM | 2.04 µM | 1.7 µM | 2 µM | 12.9 µM | – | 9% | 76% | 64% | 65% | 58% | 7% | 52% | 69% | 80% | 17.8 µM | –
Cc1csc(-c2cnn3c(NCc4ccccn4)ccnc23)c1 [Compound 10] | 14% | -8% | 71% | 16% | 5.37 µM | 4.68 µM | 1.86 µM | 1.78 µM | 20.4 µM | – | -45% | 77% | 52% | 25% | 51% | 8% | 16% | 68% | 89% | 22.9 µM | –
O=c1cc(N2CCOCC2)oc2c(-c3ccccc3)cccc12 [LY294002, reference compound] | – | – | – | – | 75.9 µM | 51.3 µM | 1.07 µM | 5.37 µM | 12.9 µM | 21 µM | – | – | – | – | – | – | – | – | – | 6.03 µM | difference of EC50 between FRAT2-C9M-TF1 and C9M-TF1 cells (FRAT2-C9M-TF1 cells [3]; FRAT2-C9M-TF1 cells more resistant): approx. 8.5 fold; EC50 (LoVo): 3 µM; EC50 (C9M-TF1 cells [17]): ~6 µM; EC50 (FRAT2-C9M-TF1 cells [18]): ~50 µM
Avastin: FDA-approved monoclonal antibody (Genentech) blocking vascular endothelial growth factor (VEGF) | – | – | – | – | – | – | – | – | – | – | – | – | – | – | – | – | – | – | – | – | lived longer than patients on the standard regimen alone (colon cancer): about five

Reference: patent US20080300263A1, “Pyrazolo [1,5-a] pyrimidine compounds and pharmaceutical compositions containing them” (EiRx Therapeutics plc, priority 2005, published 2008)
